Laboratory results reported in publication PMC11857742, “Antiaging Potential of Lipophilic Extracts of Caulerpa prolifera” (Marine Drugs, 2025).

Molecular target: T1, collagenase
T1 construct: gene colG; usual product is native clostridial collagenase
Experiment: FALGPA hydrolysis, ninhydrin detection at […] nm
Assay type: biochemical
Settings: pH 7.4, 37 °C, TES, calcium chloride; chelates the metal cofactor

With `O=C(O)CN(CCN(CC(=O)O)CC(=O)O)CC(=O)O` [EDTA] the “Collagenase / IC50” value was 51.2 ± 0.12 µg/mL.
